Columns and labels:
[1] = xn = mol fraction of the nth substance listed; conditions: 298.15 K, 101 kPa, Liquid
[2] = refractive index (Na D-line) (dimensionless); xn = mol fraction of the nth substance listed; conditions: 298.15 K, 101 kPa, Liquid, Standard Abbe refractometry
[3] = refractive index (Na D-line) (dimensionless); conditions: 298.15 K; 101.33 kPa; Liquid; Standard Abbe refractometry
[4] = 298.15 K; 101.33 kPa; Liquid

CCCCn1cc[n+](C)c1.F[B-](F)(F)F [1-butyl-3-methylimidazolium tetrafluoroborate] + CCO
Conditions | mass density, [1] [kg/m3] | refractive index, [2]
x1 = 0.0517 | 850.45 | 1.3703
x1 = 0.0918 | 891.63 | 1.3767
x1 = 0.1995 | 976.13 | 1.3898
x1 = 0.2495 | 1007.41 | 1.3943
x1 = 0.2518 | 1042.9 | 1.3946
x1 = 0.3228 | 1081.97 | 1.3998
x1 = 0.4219 | 1117.11 | 1.4058
x1 = 0.5356 | 1138.94 | 1.4105
x1 = 0.6244 | 1156.56 | 1.4137
x1 = 0.709 | 1177.74 | 1.4161
x1 = 0.8295 | 1192.74 | 1.4188

CCCCn1cc[n+](C)c1.COS(=O)(=O)[O-] [1-butyl-3-methylimidazolium methyl sulfate]
Conditions | mass density [kg/m3] | refractive index
[3] | – | 1.4794
[4] | 1207.75 | –

CCCCn1cc[n+](C)c1.F[B-](F)(F)F [1-butyl-3-methylimidazolium tetrafluoroborate]
Conditions | mass density [kg/m3] | refractive index
[3] | – | 1.4219
[4] | 1201.41 | –

CCO [ethanol]
Conditions | mass density [kg/m3] | refractive index
[3] | – | 1.3593
[4] | 785.18 | –

CCOCCOCCO [3,6-dioxa-1-octanol]
Conditions | mass density [kg/m3] | refractive index
[3] | – | 1.4253
[4] | 983.68 | –

CCCCn1cc[n+](C)c1.F[B-](F)(F)F [1-butyl-3-methylimidazolium tetrafluoroborate] + OCCO
Conditions | mass density, [1] [kg/m3] | refractive index, [2]
x1 = 0.0517 | 1123.11 | 1.4287
x1 = 0.138 | 1138.78 | 1.4261
x1 = 0.1928 | 1146.51 | 1.425
x1 = 0.2567 | 1154.22 | 1.424
x1 = 0.3 | 1158.72 | 1.4235
x1 = 0.3324 | 1161.86 | 1.4231
x1 = 0.402 | 1167.89 | 1.4226
x1 = 0.4162 | 1168.98 | 1.4225
x1 = 0.4997 | 1175.1 | 1.4219
x1 = 0.5803 | 1180.22 | 1.4216
x1 = 0.632 | 1183.29 | 1.4215
x1 = 0.696 | 1186.82 | 1.4215
x1 = 0.8045 | 1192.48 | 1.4215
x1 = 0.9083 | 1197.33 | 1.4217

OCCO [1,2-ethanediol]
Conditions | refractive index
[3] | 1.4304

ClCCCCl [1,3-dichloropropane] + CCCCn1cc[n+](C)c1.COS(=O)(=O)[O-]
Conditions | mass density, [1] [kg/m3] | refractive index, [2]
x2 = 0.0429 | 1183.63 | 1.4499
x2 = 0.0674 | 1185.62 | 1.4518
x2 = 0.104 | 1188.24 | 1.4543
x2 = 0.1376 | 1190.37 | 1.4564
x2 = 0.1894 | 1193.17 | 1.4596
x2 = 0.2496 | 1195.76 | 1.4624
x2 = 0.3166 | 1198.02 | 1.4654
x2 = 0.3917 | 1200.02 | 1.4677
x2 = 0.4881 | 1201.98 | 1.4706
x2 = 0.5686 | 1203.19 | 1.4725
x2 = 0.6797 | 1204.61 | 1.4747
x2 = 0.7887 | 1205.73 | 1.4765
x2 = 0.8987 | 1206.82 | 1.4784

C[N+](=O)[O-] [nitromethane] + CCCCn1cc[n+](C)c1.F[B-](F)(F)F
Conditions | mass density, [1] [kg/m3] | refractive index, [2]
x2 = 0.0512 | 1148.18 | 1.3889
x2 = 0.0991 | 1158.64 | 1.3952
x2 = 0.1392 | 1165.19 | 1.399
x2 = 0.2026 | 1173.12 | 1.4038
x2 = 0.2986 | 1181.43 | 1.4089
x2 = 0.3565 | 1185.14 | 1.4112
x2 = 0.3972 | 1187.27 | 1.4125
x2 = 0.4553 | 1189.89 | 1.4142
x2 = 0.5231 | 1192.3 | 1.4158
x2 = 0.5949 | 1194.48 | 1.4172
x2 = 0.6863 | 1196.69 | 1.4188
x2 = 0.8073 | 1198.86 | 1.4202
x2 = 0.8634 | 1199.69 | 1.4207

ClCCCCl [1,3-dichloropropane]
Conditions | mass density [kg/m3] | refractive index
[3] | – | 1.446
[4] | 1179.1 | –

ClCCCCl [1,3-dichloropropane] + CCCCn1cc[n+](C)c1.F[B-](F)(F)F
Conditions | mass density, [1] [kg/m3] | refractive index, [2]
x2 = 0.0536 | 1184.13 | 1.4448
x2 = 0.1135 | 1187.8 | 1.443
x2 = 0.1516 | 1189.78 | 1.4418
x2 = 0.2101 | 1192.32 | 1.4401
x2 = 0.2817 | 1194.71 | 1.4381
x2 = 0.3528 | 1196.53 | 1.4359
x2 = 0.4042 | 1197.51 | 1.4345
x2 = 0.4626 | 1198.41 | 1.433
x2 = 0.5254 | 1199.14 | 1.4314
x2 = 0.5466 | 1199.38 | 1.4309
x2 = 0.5955 | 1199.76 | 1.4296
x2 = 0.6786 | 1200.34 | 1.4276
x2 = 0.7863 | 1200.89 | 1.4255
x2 = 0.9028 | 1201.2 | 1.4234

From the NIST ThermoML archive (doi:10.1016/j.jct.2008.01.023)
